# According to patent US6037348A (priority 1997, dated 2000):
# Tested on: influenza virus strain A/Kaw/86
structure (smiles),measurement,value
COC(=O)[C@@]1(C)CCC[C@]2(C)c3cc(OC)ccc3C(=O)C[C@@H]12 [COMPOUND A],plaque morphology of mutant A2,altered plaque morphology
